For one assay, the target named is MLL1-WDR5 PPI (Homo sapiens (Human), UniProt P61964). The experiment in a line: fluorescent probe assay of MLL1-WDR5 protein-protein interaction inhibition. The assay is classed as binding. Conditions: fluorescent probe based on MLL1 peptide, incubation 0.5 hrs, read-out: MLL1-WDR5 PPI inhibiting activity IC50. The protocol:
In the present disclosure, a fluorescent molecular probe was constructed based on a MLL1 peptide fragment binding to WDR5, for use as a method for study on an aniline compound interfering with WDR5 protein-protein interaction, to determine an inhibition rate of the aniline compound at various concentrations, and then compute the IC50 value. Specific experimental steps: 20 μL of WDR5 protein, 20 μL of a fluorescent probe, and 20 μL of a compound of different concentration gradients were added to a 384-well plate respectively. After incubation for 0.5 hrs, the fluorescence was read on a multifunctional microplate reader at an excitation wavelength of 485 nm and an emission wavelength of 535 nm, to compute the mP value. The inhibition rate was computed as per the formula below, and then the IC50 value was computed using GraphPad software.
With `CN1CCN(c2ccc([N+](=O)[O-])cc2Nc2ncnc(Cl)c2N)CC1` [Example 7, 6-chloro-N^4-(2-(4-methylpiperazin-1-yl)-5-nitrophenyl)pyrimidine-4,5-diamine], the 50% inhibitory concentration (IC50) worked out at 2660 nM.
`CN1CCN(c2ccc(-c3ccc(NC(=O)c4ccccc4)cc3)cc2Nc2ncnc(Cl)c2N)CC1` [Example 37, N-(3″-((5-amino-6-chloropyrimidin-4-yl)amino)-4″-(4-methylpiperazin-1-yl)-[1,1′-biphenyl]-4-yl)benzenecarboxamide]: the 50% inhibitory concentration (IC50) came to 5550 nM.
Regarding `CN1CCN(c2ccc([N+](=O)[O-])cc2Nc2cc(Cl)ncn2)CC1` [Example 2, 6-chloro-N-(2-(4-methylpiperazin-1-yl)-5-nitrophenyl)pyrimidine-4-amine], the IC50 was 10300 nM.
For `CN1CCN(c2ccc(-n3cc(C(=O)NCCCN4CCOCC4)nn3)cc2Nc2ncnc(Cl)c2N)CC1` [Example 48, 1-(3-((5-amino-6-chloropyrimidin-4-yl)amino)-4-(4-methylpiperazin-1-yl)phenyl)-N-(3-morpholinopropyl)-1H-1,2,3-triazole-4-carboxamide], the IC50 was determined as 1090 nM.
As for `COc1ccc(-c2ccc(N3CCN(C)CC3)c(Nc3ncnc(Cl)c3N)c2)cc1` [Example 42, 6-chloro-N-(4′-methoxyl-4-(4-methylpiperazin-1-yl)-[1,1′-biphenyl]-3-yl)pyrimidine-4,5-diamine], the IC50 turned out to be 1560 nM.
For `CN1CCN(C(=O)c2cn(-c3ccc(N4CCN(C)CC4)c(Nc4ncnc(Cl)c4N)c3)nn2)CC1` [Example 49, (1-(3-((5-amino-6-chloropyrimidin-4-yl)amino)-4-(4-methylpiperazin-1-yl)phenyl)-1H-1,2,3-triazole-4-yl)(4-methylpiperazin-1-yl)methanone], the IC50 is 1250 nM.
For the compound `CN(C)CCNC(=O)c1cn(-c2ccc(N3CCN(C)CC3)c(Nc3ncnc(Cl)c3N)c2)nn1` [Example 52, 1-(3-((5-amino-6-chloropyrimidin-4-yl)amino)-4-(4-methylpiperazin-1-yl)phenyl)-N-(2-(dimethylamino)ethyl)-1H-1,2,3-triazole-4-carboxamide], the IC50 was found to be 1560 nM.
For the compound `Cc1cc(N2CCN(C)CC2)c(Nc2ncnc(Cl)c2N)cc1-c1ccc(C(=O)NCCCN2CCOCC2)cc1` [Example 74, 5″-((5-amino-6-chloropyrimidin-4-yl)amino)-2′-methyl-4″-(4-methylpiperazin-1-yl)-N-(3-morpholinopropyl)-[1,11,1′-terphenyl]-4-carboxamide], the IC50 amounted to 465 nM.
Turning to `CN1CCN(c2ccc(-n3cc(C(=O)NCCN4CCCC4)nn3)cc2Nc2ncnc(Cl)c2N)CC1` [Example 53, 1-(3-((5-amino-6-chloropyrimidin-4-yl)amino)-4-(4-methylpiperazin-1-yl)phenyl)-N-(2-(pyrrolidin-1-yl)ethyl)-1H-1,2,3-triazole-4-carboxamide], the IC50 worked out at 1610 nM.
With `CN1CCN(c2ccc(-c3ccoc3)cc2Nc2ncnc(Cl)c2N)CC1` [Example 43, 6-chloro-N^4-(5-(furan-3-yl)-2-(4-methylpiperazin-1-yl)phenyl)pyrimidine-4,5-diamine], the half-maximal inhibitory concentration (IC50) was 11400 nM.
Take `Cc1c(-c2ccc(C(=O)N(C)C)cc2)ccc(N2CCN(C)CC2)c1Nc1ncnc(Cl)c1N` [Example 65, 3″-((5-amino-6-chloropyrimidin-4-yl)amino)-N,N,2′-trimethyl-4″-(4-methylpiperazin-1-yl)-[1,1′-biphenyl]-4-carboxamide]: the IC50 was 671 nM.
Same read-out and setting: in the case of `CN1CCN(c2ccc(-c3cncnc3)cc2Nc2ncnc(Cl)c2N)CC1` [Example 44, 6-chloro-N^4-(2-(4-methylpiperazin-1-yl)-5-(pyrimidine-5-yl)phenyl)pyrimidine-4,5-diamine] it was 5710 nM.

The subject of the next assay is methylation level of H3K4. The assay is described as follows: inhibition of the methylation level of H3K4 (methyltransferase activity). The assay is classed as biochemical.
Details: not given
As to `CN1CCN(c2ccc(-c3ccc(NC(=O)c4ccccc4)cc3)cc2Nc2ncnc(Cl)c2N)CC1` [Example 37, N-(3″-((5-amino-6-chloropyrimidin-4-yl)amino)-4″-(4-methylpiperazin-1-yl)-[1,1′-biphenyl]-4-yl)benzenecarboxamide], the “Whether the methylation level of H3K4 was inhibited” value is given as “Yes”.
The same measure, in the same setting: with `Cc1cc(N2CCN(C)CC2)c(Nc2ncnc(Cl)c2N)cc1-c1ccc(C(=O)NCCCN2CCOCC2)cc1` [Example 74, 5″-((5-amino-6-chloropyrimidin-4-yl)amino)-2′-methyl-4″-(4-methylpiperazin-1-yl)-N-(3-morpholinopropyl)-[1,11,1′-terphenyl]-4-carboxamide] the entry was “Yes”.

For the origin of these results see patent US12453731B2, “Aniline-based WDR5 protein-protein interaction inhibitor, and preparation method and use thereof” (CHINA PHARMACEUTICAL UNIVERSITY, priority 2019, dated 2025).
